Data set [1] in a line: pharmacokinetic study, plasma level after single po or iv administration. The data set is classed as in vivo, male CD1 mice. To be noted: mice. How it is done: Screening PK properties of compounds of Formula (I) are additionally determined, including plasma and free plasma concentration, as well as Cmax. For example, the free concentration of compound after a dose of eg 30 mg/kg po (per os) administered mice can be determined for certain time points after administrations.
To further investigate PK properties of kinase inhibitors of Formula (I), the compounds are tested for in vivo drug exposure and potency in a full pharmacokinetic study with oral administration (per os, po).
The experimental procedure and the determination of the pharmacokinetic parameters are investigated after single administration of each compound per gavage in male CD1 mice (Intonation Research Laboratories (Hyderabad, India)). The compounds are diluted in 5% DMSO+5% Solutol+90% water. Plasma level (eg sampling 0.25 h; 0.5 h; 1 h; 1.5 h; 2 h; 4 h; 6 h; 12 h; 24 h after drug administration) of the compounds are analysed by LC-MS/MS and pharmacokinetic parameters are determined using non-compartmental analysis and nominal dose levels of eg 30 mg/kg po and 1 mg/kg iv. Three animals are analysed per time point and each mouse is used for three plasma samplings in total.

Data set [2] is described as follows: Mouse hepatocyte stability. The data set is classed as in vitro ADME. The note with it: mouse hepatocytes, 37°C. On the procedure: Determination of human and mice hepatocyte stability was conducted as follows. 200 uL of the respective hepatocyte cell suspension (2×10e6/ml) was preincubated at 37° C. for 10 min. Then, 200 uL of a 2 uM working stock of the test compound was added to the hepatocyte cell suspension, and the mixture was further incubated at 37° C. and 500 rpm. The reaction was stopped at 30, 60 and 120 min by precipitating 50 uL of the incubation mixture with 200 uL of acetonitrile. Samples were vortexed for 5 min at 1200 rpm and centrifuged at 4000 rpm for 10 min. Intrinsic clearance and half-life were analysed using LC-MS/MS.
(§1) LC-MS/MS was performed for all assays using a C18 column (50*4.6 mm, 5 um) for the CaCo2 assay, or a C18 column (50*4.6 mm, 4 um) for the other assays. The mobile phases used were 10 mM Ammonium Acetate with 0.1% Formic acid (aqueous) and 100% Acetonitrile (organic).

Data set [3] is described as follows: Human liver microsomal stability. In kind it is in vitro ADME. The note with it: pH 7.4; human liver microsomes, NADPH, 37°C. How it is done:
Briefly, human and liver microsomal stability was determined by pre-incubation of 2.5 uL compound and 75 uL of the respective liver microsomes in potassium phosphate buffer (pH 7.4) at 37° C. After adding of NADPH as cofactor and further incubation at 37° C. for 60 min, acetonitrile containing internal standard was added, and the sample was vortexed for 5 min at 1200 rpm and then centrifuged 10 min at 4000 rpm.
as §1

In data set [4] the test system is MC38 tumour cells. The data set can be described thus: TNF-sensitised cell viability assay (CellTiter-Glo), MC38. The note with it: Mus musculus, MC-38, read-out: MC38 IC50 (at 100 ng/ml rMuTNF); 100 ng/ml rMuTNF, 72 h. The data set is classed as cell-based, murine.

For the compound `COc1ccc(N2C(=O)N(c3c(C)csc3Cl)Cc3cnc(Nc4ccc(C5CCN(C)CC5)cc4OC)nc32)nc1` [AA1, 3-(2-chloro-4-methylthiophen-3-yl)-7-((2-methoxy-4-(1-methylpiperidin-4-yl)phenyl)amino)-l-(5-methoxypyridin-2-yl)-3,4-dihydropyrimido[4,5-d]pyrimidin-2(1H)-one], the “compound detectable in plasma after 24 h” value in data set [1] (1 mg/kg iv) and in data set [1] (30 mg/kg po) was “detectable after 24 hours” each time. In data set [2], this compound yielded a half-life at 1 uM of 1.73 h. Moreover, in data set [3], the half-life amounted to 0.3 h. Moreover, in data set [4], the IC50 lay in the range of 1 to 1.5 µM.
